Patent publication US11685732B2, “MYST family histone acetyltransferase inhibitors” (Epizyme, Inc., priority 2017, dated 2023)

Key:
[1] = target: KAT-5 (Homo sapiens (Human), UniProt Q92993); assay: KAT-5 biochemical inhibition assay (SAMDI mass spectrometry)
Outline: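 Acetylation of 1 μM peptide by 9 nM enzyme with 0.5 μM acetyl-CoA (final) was run 90 min at 25° C in Tris pH 8.0 buffer with DTT, after compound preincubation at 2% DMSO. Formic acid stopped the reaction, and product was quantified by SAMDI mass spectrometry to derive IC50.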

[2] = target: KAT-6A (Homo sapiens (Human), UniProt Q92794); assay: KAT-6A biochemical inhibition assay (SAMDI mass spectrometry)
Outline: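 IC50 values came from SAMDI time-of-flight mass spectrometry after formic acid quench (0.5% final). Acetylation ran 90 min at 25 °C with 1 μM acetyl coenzyme A and 1 μM peptide substrate, following compound pre-incubation with 12.5 nM KAT-6A in Tris buffer pH 8.0 containing DTT, 2% DMSO final.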

[3] = target: KAT-7 (Homo sapiens (Human), UniProt O95251); assay: KAT-7 biochemical inhibition assay (SAMDI mass spectrometry)
Outline: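 Read-out was SAMDI time-of-flight MS of formic acid-quenched reactions (0.5% final). Compound dilutions (2% DMSO final) were pre-incubated with 6 nM KAT-7 in 50 mM Tris pH 8.0 with 1 mM DTT, then given 1 μM peptide substrate and 2 μM acetyl-CoA for 120 min at 25 °C. IC50 values were derived.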

[4] = target: KAT-8 (Homo sapiens (Human), UniProt Q9H7Z6); assay: KAT-8 biochemical inhibition assay (SAMDI mass spectrometry)
Outline: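 Acetylation of 1 μM peptide substrate with 5 μM acetyl-CoA by 12.5 nM enzyme, compound pre-incubated, 2% DMSO, Tris pH 8.0 buffer with DTT, 25 °C for 90 min. Quench with 0.5% formic acid; product read by SAMDI mass spectrometry to give IC50.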

Chain of KAT-7 (O95251 other isoform, or with tags, fused parts or gaps): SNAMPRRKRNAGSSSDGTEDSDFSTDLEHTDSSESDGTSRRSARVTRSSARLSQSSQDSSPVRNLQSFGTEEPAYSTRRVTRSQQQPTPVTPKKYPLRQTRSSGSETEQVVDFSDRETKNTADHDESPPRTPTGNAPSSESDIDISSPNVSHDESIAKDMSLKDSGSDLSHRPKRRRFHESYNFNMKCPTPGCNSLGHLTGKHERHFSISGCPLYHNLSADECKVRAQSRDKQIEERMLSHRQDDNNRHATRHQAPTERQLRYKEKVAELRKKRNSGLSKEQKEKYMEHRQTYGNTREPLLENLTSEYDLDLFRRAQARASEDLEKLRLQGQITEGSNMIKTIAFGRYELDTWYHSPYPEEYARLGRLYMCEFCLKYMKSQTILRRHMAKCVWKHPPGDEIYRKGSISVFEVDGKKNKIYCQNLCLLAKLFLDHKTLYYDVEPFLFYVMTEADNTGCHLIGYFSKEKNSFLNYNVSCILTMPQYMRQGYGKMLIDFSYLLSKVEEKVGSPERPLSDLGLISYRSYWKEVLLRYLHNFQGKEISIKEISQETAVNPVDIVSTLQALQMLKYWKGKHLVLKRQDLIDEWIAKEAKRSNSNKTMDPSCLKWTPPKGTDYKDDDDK
Chain of KAT-6A (Q92794 other isoform, or with tags, fused parts or gaps): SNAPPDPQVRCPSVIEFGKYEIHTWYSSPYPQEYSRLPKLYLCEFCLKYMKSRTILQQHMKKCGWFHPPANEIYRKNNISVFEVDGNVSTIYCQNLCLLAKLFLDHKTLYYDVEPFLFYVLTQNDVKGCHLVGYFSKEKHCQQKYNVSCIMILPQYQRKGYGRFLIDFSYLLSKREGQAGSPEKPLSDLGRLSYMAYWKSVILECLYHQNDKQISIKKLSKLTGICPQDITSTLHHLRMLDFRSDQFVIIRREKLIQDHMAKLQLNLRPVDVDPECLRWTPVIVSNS
Chain of KAT-8 (Q9H7Z6 other isoform, or with tags, fused parts or gaps): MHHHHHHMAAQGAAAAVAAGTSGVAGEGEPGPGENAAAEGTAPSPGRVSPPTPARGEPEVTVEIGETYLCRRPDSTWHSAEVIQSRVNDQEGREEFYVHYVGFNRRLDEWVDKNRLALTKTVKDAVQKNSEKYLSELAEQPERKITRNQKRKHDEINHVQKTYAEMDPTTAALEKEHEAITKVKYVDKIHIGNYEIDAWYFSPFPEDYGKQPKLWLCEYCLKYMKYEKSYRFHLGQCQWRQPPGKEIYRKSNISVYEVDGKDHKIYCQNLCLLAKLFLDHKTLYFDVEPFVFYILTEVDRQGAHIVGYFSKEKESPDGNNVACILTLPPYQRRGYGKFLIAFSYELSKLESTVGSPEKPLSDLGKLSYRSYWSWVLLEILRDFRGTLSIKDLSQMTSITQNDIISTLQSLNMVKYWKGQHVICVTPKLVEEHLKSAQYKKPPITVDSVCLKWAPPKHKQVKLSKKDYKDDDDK
Chain of KAT-5 (Q92993 other isoform, or with tags, fused parts or gaps): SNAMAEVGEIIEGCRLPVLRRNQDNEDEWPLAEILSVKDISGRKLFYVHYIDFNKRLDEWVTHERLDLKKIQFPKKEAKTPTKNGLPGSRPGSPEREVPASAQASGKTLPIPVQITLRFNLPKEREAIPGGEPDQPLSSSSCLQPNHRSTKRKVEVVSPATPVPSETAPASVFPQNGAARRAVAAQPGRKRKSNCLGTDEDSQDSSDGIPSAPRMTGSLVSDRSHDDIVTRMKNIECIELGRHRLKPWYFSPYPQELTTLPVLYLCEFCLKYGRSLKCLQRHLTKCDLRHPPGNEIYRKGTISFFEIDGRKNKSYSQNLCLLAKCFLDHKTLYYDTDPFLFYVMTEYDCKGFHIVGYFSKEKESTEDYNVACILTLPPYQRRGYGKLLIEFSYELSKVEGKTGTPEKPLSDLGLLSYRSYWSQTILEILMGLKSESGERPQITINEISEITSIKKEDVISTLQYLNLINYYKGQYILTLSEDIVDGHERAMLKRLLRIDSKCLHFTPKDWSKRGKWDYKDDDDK

Row | IC50 [1] [µM] | IC50 [2] [µM] | IC50 [3] [µM] | IC50 [4] [µM] | SMILES
1 | < 10 | < 10 | < 10 | 10 to 50 | CCC(=O)N(C)C1CCC(CS(=O)(=O)NNC(=O)c2cc(-c3cn(C)cn3)cc(Cl)c2F)CC1 (stereo not drawn) [Compound I-326]
2 | 10 to 50 | > 100 | < 10 | > 100 | COCCn1cnc(-c2cc(C)c(F)c(C(=O)NNS(=O)(=O)C3CCCCC3)c2)c1 [Compound I-134]
3 | < 10 | < 10 | < 10 | 10 to 50 | CCNC(=O)N[C@H]1CCC[C@H](CS(=O)(=O)NNC(=O)c2cc(-c3cn(C)cn3)cc(Cl)c2F)C1 [Compound I-348]
4 | < 10 | < 10 | < 10 | 10 to 50 | CNC(=S)N1CC[C@H](CS(=O)(=O)NNC(=O)c2cc(-c3cn(C)cn3)cc(Cl)c2F)C1 [Compound I-172]
5 | < 10 | < 10 | < 10 | 10 to 50 | Cn1cnc(-c2cc(Cl)c(F)c(C(=O)NNS(=O)(=O)C[C@H]3C[C@@H](NC(N)=O)C3)c2)c1 [Compound I-235]
6 | < 10 | < 10 | < 10 | 10 to 50 | COc1ccc(CN(C)C(=O)N[C@H]2C[C@H](CS(=O)(=O)NNC(=O)c3cc(-c4cn(C)cn4)cc(Cl)c3F)C2)cc1 [Compound I-175]
7 | < 10 | < 10 | < 10 | 10 to 50 | CCO[C@H]1CCC[C@H](CS(=O)(=O)NNC(=O)c2cc(-c3cn(C)cn3)cc(Cl)c2F)C1 [Compound I-357]
8 | < 10 | < 10 | < 10 | 10 to 50 | COc1ccccc1S(=O)(=O)NNC(=O)c1cc(-c2cn(C)cn2)cc(Cl)c1F [Compound I-321]
9 | < 10 | < 10 | < 10 | 10 to 50 | Cn1cnc(-c2cc(Cl)c(F)c(C(=O)NNS(=O)(=O)C[C@H]3CC[C@H](NS(C)(=O)=O)CC3)c2)c1 [Compound I-211]
10 | < 10 | < 10 | < 10 | 10 to 50 | CCNC(=O)N[C@H]1CCC[C@@H](CS(=O)(=O)NNC(=O)c2cc(-c3cn(C)cn3)cc(Cl)c2F)C1 [Compound I-287]
11 | < 10 | 10 to 50 | < 10 | > 100 | Cc1cc(-c2cn(C)cn2)cc(C(=O)NNS(=O)(=O)CC2CCOCC2)c1F [Compound I-130]
12 | < 10 | < 10 | < 10 | 10 to 50 | Cn1cnc(-c2cc(Cl)c(F)c(C(=O)NNS(=O)(=O)C[C@H]3CCC[C@@H](NC(=O)OC(C)(C)C)C3)c2)c1 [Compound I-252]
13 | < 10 | < 10 | < 10 | 10 to 50 | CN1CCN([C@H]2CC[C@@H](CS(=O)(=O)NNC(=O)c3cc(-c4cn(C)cn4)cc(Cl)c3F)CC2)C1=O [Compound I-310]
14 | 10 to 50 | > 100 | 50 to 100 | > 100 | COCCn1cnc(-c2cc(C)c(F)c(C(=O)NNS(=O)(=O)C3CCOCC3)c2)c1 [Compound I-138]
15 | < 10 | < 10 | < 10 | 50 to 100 | COC1CCC(CS(=O)(=O)NNC(=O)c2cc(-c3cn(C)cn3)cc(Cl)c2F)C1 (stereo not drawn) [Compound I-387]
16 | 10 to 50 | 50 to 100 | < 10 | > 100 | CCn1cc(-c2cc(Cl)c(F)c(C(=O)NNS(=O)(=O)C3CCCCC3)c2)nc1C [Compound I-46]
17 | < 10 | < 10 | < 10 | 10 to 50 | CN(C)C(=O)N1CCC(CS(=O)(=O)NNC(=O)c2cc(-c3cn(C)cn3)cc(Cl)c2F)C1 (stereo not drawn) [Compound I-66]
18 | < 10 | 10 to 50 | < 10 | 10 to 50 | CCC(=O)N1CCC(CS(=O)(=O)NNC(=O)c2cc(-c3cn(C)cn3)cc(Cl)c2F)C1 (stereo not drawn) [Compound I-73]
